These results are taken from PubChem BioAssay (NCI).

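Following 48 hours of exposure in 96-well plates, responses at five concentrations were used to interpolate endpoints linearly. Here, GI50 denotes the concentration required for 50% inhibition of growth. TGI: total growth inhibition.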

Common to all, as to assay: inhibition of tumour cell growth, NCI panel, 48 h
Experiment [1] has as its system CAKI-1 renal.
Experiment [2] has as its system CCRF-CEM leukemia.
For experiment [3], the system named is HCT-15 colon.
Experiment [4] deals with K-562 leukemia.
In experiment [5] the test system is LOX IMVI melanoma.
Experiment [6] has as its system OVCAR-8 ovarian.
Experiment [7] has as its system SF-268 CNS.
Experiment [8] concerns SK-MEL-2 melanoma.
For experiment [9], the system named is UACC-257 melanoma.
Experiment [10] deals with UACC-62 melanoma.

Take `C#Cc1cccc(Nc2nc(C)nc3cc(NC(=O)CCl)ccc23)c1`: the GI50 is 2.97 µM in experiment [1]; 0.638 µM in experiment [2]; 0.687 µM in experiment [3]; 0.953 µM in experiment [4]; 0.424 µM in [5]; 2.07 µM in experiment [6]. Moreover, the GI50 in [7] is 2.62 µM; in [8] it was 3.9 µM; in experiment [9] it was 4.07 µM; in experiment [10] it was 1.01 µM. Besides, the TGI in experiment [1] worked out at 6.23 µM; in experiment [2], 2.22 µM; in experiment [3] it was 2.64 µM; in experiment [4], 3.65 µM; in [5], 0.95 µM; in [6], 6.12 µM. The TGI amounted to 6.82 µM in experiment [7], 7.9 µM in experiment [8], 7.62 µM in experiment [9] and 3.81 µM in [10].
In the case of `C=C[C@@H]1CCC/C=C/[C@@H]2C[C@H](O)C[C@H]2[C@H](O)/C=C/C(=O)O1`, the GI50 in experiment [1] was 1.89 µM; in experiment [2] it was 2.42 µM; in [3], 2.23 µM; in [4], 3.18 µM; in [5], 0.269 µM; in experiment [6] it was 0.44 µM. Moreover, the GI50 is 0.44 µM in [7], 0.832 µM in experiment [8], 0.317 µM in experiment [9] and 0.545 µM in [10]. Moreover, the TGI in experiment [1] is over 50.3 µM; in experiment [2], over 100 µM; in experiment [3], over 100 µM; in experiment [4] it was over 100 µM; in experiment [5], 0.815 µM; in experiment [6], over 100 µM. Also, the TGI in experiment [7] is over 100 µM; in experiment [8] it was 8.53 µM; in experiment [9], over 100 µM; in [10] it was over 100 µM.
Regarding `CCCCNC(=O)Oc1ccc(/C(=C(\C)c2ccc(OC)cc2)c2ccc(OCCN3CCCCC3)cc2)cc1`, the GI50 was 1.94 µM in experiment [1]; 2.81 µM in experiment [2]; 1.67 µM in experiment [3]; 1.49 µM in experiment [4]; 1.83 µM in [5]; 3.4 µM in experiment [6]. In addition, the GI50 in experiment [7] was 5.55 µM; in experiment [8] it was 4.65 µM; in experiment [9], 2.72 µM; in experiment [10] it was 2.06 µM. Besides, the TGI in [1] was determined as 3.92 µM; in experiment [2], 9.78 µM; in [3], 4.52 µM; in experiment [4], 4.65 µM; in experiment [5], 3.44 µM; in [6], 11.1 µM. The TGI in experiment [7] stood at 20.5 µM; in experiment [8], 17.4 µM; in [9], 6.71 µM; in experiment [10], 4.1 µM.
In the case of `O=c1cc(-c2ccccc2)oc2c(O)c(O)ccc12`, the GI50 in [1] is 7.18 µM; in experiment [2] it was 3.45 µM; in [3], 5.45 µM; in experiment [4], 6.08 µM; in [5], 9.58 µM; in experiment [6], 5.65 µM. In addition, the GI50 is 6.4 µM in [7], 44.9 µM in experiment [8], 18.6 µM in experiment [9] and 13.8 µM in experiment [10]. For the same compound, the TGI in experiment [1] was 61.2 µM; in [2], over 100 µM; in experiment [3], over 100 µM; in [4] it was over 100 µM; in experiment [5] it was over 100 µM; in experiment [6], over 100 µM. The TGI is over 100 µM in [7], over 100 µM in experiment [8], 88.5 µM in experiment [9] and 66.4 µM in experiment [10].
In the case of `COc1ccc(-c2oc3ncnc(N)c3c2-c2ccc(NC(=O)Nc3cc(C(F)(F)F)ccc3F)cc2)cc1`, the GI50 in experiment [1] is 0.838 µM; in experiment [2] it was 0.934 µM; in experiment [3], 1.04 µM; in experiment [4], 1.19 µM; in [5], 0.658 µM; in [6] it was 0.79 µM. The GI50 in experiment [7] was 1.03 µM; in [8], 1.01 µM; in experiment [9], 2.46 µM; in experiment [10], 0.956 µM. Further, the TGI stood at 6.69 µM in [1]; 11.8 µM in [2]; 6.65 µM in experiment [3]; 16.6 µM in experiment [4]; 3.21 µM in experiment [5]; 3.73 µM in [6]. The TGI in experiment [7] is 3.76 µM; in experiment [8], 3.5 µM; in [9], 6.69 µM; in experiment [10] it was 4.23 µM.
With `COc1ccc(NC(=O)c2ccc(C(F)(F)F)nc2Nc2ccc(Cl)cc2C)cc1Cl`, the GI50 was 4.41 µM in experiment [1]; 3.84 µM in experiment [2]; 7.12 µM in [3]; 2.42 µM in experiment [4]; 3.96 µM in experiment [5]; 7.67 µM in [6]. Further, the GI50 in experiment [7] is 5.4 µM; in experiment [8] it was 7.33 µM; in experiment [9] it was 10.8 µM; in experiment [10] it was 3.35 µM. The TGI in experiment [1] stood at 18.9 µM; in [2], 17.4 µM; in experiment [3] it was 20.5 µM; in [4], 10.6 µM; in experiment [5], 13.5 µM; in [6] it was 24.3 µM. Also, the TGI was 21.3 µM in experiment [7], 21 µM in experiment [8], 24 µM in experiment [9] and 14.3 µM in [10].
In the case of `Cc1ccccc1SC(/C=C/NNC1=NC(c2ccccc2)C(c2ccccc2)=NN1)c1ccccc1` (stereo not given), the TGI was 30 µM in experiment [1]; 94.4 µM in [2]; over 100 µM in experiment [3]; over 100 µM in [4]; over 100 µM in [5]; 40 µM in [6]. Also, the TGI in [7] is 58.7 µM; in experiment [8] it was 45.3 µM; in [9] it was over 100 µM; in experiment [10], over 100 µM.
With `Clc1ccc(-c2nnc(-c3nn(-c4ccccc4)c4nc5ccccc5nc34)o2)cc1`, the TGI is over 100 µM in experiment [1]; 80.8 µM in experiment [2]; over 100 µM in experiment [3]; over 100 µM in experiment [4]; over 100 µM in [5]; over 100 µM in experiment [6]. Besides, the TGI in experiment [7], in [8], in experiment [9] and in [10] was over 100 µM throughout.
As to `O=C1NN(C(=O)c2ccccc2)C(c2ccc(Cl)c(Cl)c2)=C/C1=C\c1ccccc1[N+](=O)[O-]`, the GI50 was 2.27 µM in experiment [1]; 1.91 µM in experiment [2]; 0.923 µM in experiment [3]; 1.9 µM in experiment [4]; 1.14 µM in [5]; 2.63 µM in [6]. Moreover, the GI50 in experiment [7] is 3.97 µM; in experiment [8] it was 3.11 µM; in [9] it was 5.23 µM; in [10], 1.44 µM. Also, the TGI is over 6.75 µM in experiment [1]; over 6.75 µM in experiment [2]; 2.99 µM in [3]; over 6.75 µM in [4]; 3.49 µM in [5]; over 6.75 µM in [6]. Moreover, the TGI in experiment [7], in [8], in experiment [9] and in [10] was over 6.75 µM each time.
Regarding `CCCCN(C)CC(C(C)=O)C(c1ccccc1)c1c(O)c2ccccc2oc1=O` (stereo not given), the TGI in experiment [1], in [2], in experiment [3], in experiment [4], in [5] and in experiment [6] was over 100 µM each time. Further, the TGI in experiment [7], in [8], in experiment [9] and in [10] was over 100 µM in each case.
On to `Oc1cccc2ccc(SSc3ccc4cccc(O)c4n3)nc12`, for which the TGI in [1] is 37.3 µM; in experiment [2], over 100 µM; in [3], 53.3 µM; in experiment [4] it was over 100 µM; in [5] it was 33.8 µM; in experiment [6] it was 36.3 µM. Further, the TGI in experiment [7] was determined as 75.4 µM; in experiment [8], 39.9 µM; in experiment [9], 43.2 µM; in experiment [10], 39.4 µM.
Take `O=c1cccccc1O`: the TGI in experiment [1] was over 100 µM; in [2] it was 82.5 µM; in experiment [3], over 100 µM; in [4], over 100 µM; in experiment [5], over 100 µM; in experiment [6], over 100 µM. Further, the TGI in experiment [7], in experiment [8], in experiment [9] and in experiment [10] was over 100 µM throughout.
On to `CC(C)(C)OC(=O)NC(Cc1ccccc1)C(=S)N1CCCC1` (stereo not given), for which the TGI in experiment [1], in [2], in experiment [3], in experiment [4], in experiment [5] and in experiment [6] was over 100 µM in each case. The TGI in experiment [7], in [8], in experiment [9] and in [10] was over 100 µM throughout.
For `COc1cc(/C=C/C(=O)c2ccccc2O)ccc1OCCCOc1cc2c(cc1OC)C(=O)N1CCC[C@H]1C=N2`, the GI50 was 0.0403 µM in experiment [1]; 0.027 µM in [2]; 0.255 µM in experiment [3]; 0.0297 µM in experiment [4]; 0.0204 µM in [5]; 0.0759 µM in [6]. In addition, the GI50 is 0.0247 µM in experiment [7], 0.0999 µM in [8], 0.158 µM in [9] and 0.0388 µM in [10]. The TGI in [1] worked out at 0.313 µM; in experiment [2], 0.094 µM; in experiment [3], 1.05 µM; in experiment [4], 18.2 µM; in experiment [5], 0.0489 µM; in experiment [6] it was 13.5 µM. The TGI in experiment [7] stood at 0.064 µM; in experiment [8] it was 0.392 µM; in experiment [9], 0.527 µM; in [10], 0.102 µM.
For `Cc1ccc(NC(=O)C(=O)C2C(=O)NC(=O)NC2=O)c(C)c1`, the TGI in [1], in [2], in experiment [3], in experiment [4], in [5] and in [6] was over 100 µM throughout. Further, the TGI in [7], in [8], in experiment [9] and in experiment [10] was over 100 µM in each case.
For `COc1ccc2c(c1)c1ccc3c(c1n2C)C(=O)C=CC3=O`, the TGI in [1] worked out at 18.6 µM; in experiment [2], 2.47 µM; in experiment [3], 10.9 µM; in experiment [4], 4.89 µM; in experiment [5] it was 14.9 µM; in experiment [6], 26.6 µM. For the same compound, the TGI in experiment [7] worked out at 31.8 µM; in [8] it was 34.7 µM; in experiment [9], 24.9 µM; in experiment [10] it was 29.3 µM.
`COc1cccc(C2SC(C)C(=O)N2NC(=O)C(O)c2ccccc2)c1` (stereo not given): the GI50 in experiment [1], in experiment [2], in experiment [3], in experiment [4], in experiment [5] and in experiment [6] was over 100 µM throughout. Besides, the GI50 in [7], in experiment [8], in experiment [9] and in [10] was over 100 µM in each case. For the same compound, the TGI in experiment [1], in experiment [2], in experiment [3], in experiment [4], in [5] and in experiment [6] was over 100 µM in each case. In addition, the TGI in [7], in [8], in experiment [9] and in experiment [10] was over 100 µM throughout.
Turning to `NC1=C(O)/C(=N/NS(=O)(=O)c2ccccc2)C(c2ccc3c(c2)OCO3)O1` (stereo not given), the TGI in experiment [1], in experiment [2], in experiment [3], in experiment [4], in experiment [5] and in [6] was over 100 µM throughout. Also, the TGI in [7], in experiment [8], in experiment [9] and in experiment [10] was over 100 µM throughout.
